Measured values taken from patent US11535598B2, “Histone deacetylases (HDACs) inhibitors” (ANNJI PHARMACEUTICAL CO., LTD., priority 2017, dated 2022).

How the values were obtained:
Human HDAC1 = Human HDAC1 (Homo sapiens (Human), UniProt Q13547); experiment: HDAC enzymatic assay, HDAC1; format: biochemical; conditions: 10-dose IC50 mode with a 3-fold serial dilution; read-out: HDAC subtypes IC50 HDAC1
Protocol: (§1) The IC50 values for aforementioned compounds against HDACs were determined. HDAC 1 to 11 can be assayed by using acetylated AMC-labeled peptide substrate.
(§2) Human HDAC1 GenBank Accession No. NM_004964): Full length with C-terminal GST tag, MW=79.9 kDa, Human HDAC2 (GenBank Accession No. Q92769): Full length with C-terminal His tag, MW=60 kDa. Human HDAC3/NcoR2 (GenBank Accession No. […] for HDAC3, GenBank Accession No. NM_006312 for NcoR2): Complex of human HDAC3, full length with C-terminal His tag, MW=49.7 kDa, and human NCOR2, N-terminal GST tag, MW=39 kDa. Human HDAC6 (GenBank Accession No. BC069243): Full length with N-terminal GST tag, MW=159 kDa. Human HDAC8 (GenBank Accession No. NM018486): Full length, MW=42 kDa, expressed in an E. coli expression system.
(§3) Human HDAC1, Human HDAC2, Human HDAC3/NcoR2, Human HDAC6, Human HDAC10, and Human HDAC11 were all expressed by baculovirus expression system in Sf9 cells.
(§4) 50 μM HDAC substrate. 1% DMSO final. Incubation for 2 hours at 30° C.

Human HDAC8 = Human HDAC8 (Homo sapiens (Human), UniProt Q9BY41); experiment: HDAC enzymatic assay, HDAC8; format: biochemical; conditions: 10-dose IC50 mode with a 3-fold serial dilution; read-out: HDAC subtypes IC50 HDAC8
Sequence of Human HDAC8 (Q9BY41 whole entry): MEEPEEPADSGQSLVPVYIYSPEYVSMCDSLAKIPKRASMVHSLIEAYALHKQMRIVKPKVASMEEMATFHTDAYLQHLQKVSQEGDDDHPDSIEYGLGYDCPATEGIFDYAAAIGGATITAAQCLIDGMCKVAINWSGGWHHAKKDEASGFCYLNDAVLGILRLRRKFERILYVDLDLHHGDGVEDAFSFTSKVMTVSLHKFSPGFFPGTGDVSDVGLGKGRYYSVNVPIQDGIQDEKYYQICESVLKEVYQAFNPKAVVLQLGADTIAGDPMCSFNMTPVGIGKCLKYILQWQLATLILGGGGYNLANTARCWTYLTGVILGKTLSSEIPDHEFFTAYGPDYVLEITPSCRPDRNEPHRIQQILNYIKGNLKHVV
Protocol: as §1, §2, §4

Human HDAC11 = Human HDAC11 (Homo sapiens (Human), UniProt Q96DB2); experiment: HDAC enzymatic assay, HDAC11; format: biochemical; conditions: 10-dose IC50 mode with a 3-fold serial dilution; read-out: HDAC subtypes IC50 HDAC11
Sequence of Human HDAC11 (Q96DB2 whole entry): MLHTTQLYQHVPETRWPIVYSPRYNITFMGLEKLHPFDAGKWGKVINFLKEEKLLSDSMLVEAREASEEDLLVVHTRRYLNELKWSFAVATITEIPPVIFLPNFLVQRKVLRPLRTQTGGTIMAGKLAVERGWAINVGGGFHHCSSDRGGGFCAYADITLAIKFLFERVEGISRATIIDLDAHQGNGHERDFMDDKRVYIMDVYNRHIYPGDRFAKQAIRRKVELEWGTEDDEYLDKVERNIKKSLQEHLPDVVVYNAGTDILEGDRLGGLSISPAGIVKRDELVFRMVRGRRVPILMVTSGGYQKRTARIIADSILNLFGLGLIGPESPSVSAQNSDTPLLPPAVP
Protocol: as §1, §2, §3, §4

Human HDAC6 = Human HDAC6 (Homo sapiens (Human), UniProt Q9UBN7); experiment: HDAC enzymatic assay, HDAC6; format: biochemical; conditions: 10-dose IC50 mode with a 3-fold serial dilution; read-out: HDAC subtypes IC50 HDAC6
Sequence of Human HDAC6 (Q9UBN7 whole entry): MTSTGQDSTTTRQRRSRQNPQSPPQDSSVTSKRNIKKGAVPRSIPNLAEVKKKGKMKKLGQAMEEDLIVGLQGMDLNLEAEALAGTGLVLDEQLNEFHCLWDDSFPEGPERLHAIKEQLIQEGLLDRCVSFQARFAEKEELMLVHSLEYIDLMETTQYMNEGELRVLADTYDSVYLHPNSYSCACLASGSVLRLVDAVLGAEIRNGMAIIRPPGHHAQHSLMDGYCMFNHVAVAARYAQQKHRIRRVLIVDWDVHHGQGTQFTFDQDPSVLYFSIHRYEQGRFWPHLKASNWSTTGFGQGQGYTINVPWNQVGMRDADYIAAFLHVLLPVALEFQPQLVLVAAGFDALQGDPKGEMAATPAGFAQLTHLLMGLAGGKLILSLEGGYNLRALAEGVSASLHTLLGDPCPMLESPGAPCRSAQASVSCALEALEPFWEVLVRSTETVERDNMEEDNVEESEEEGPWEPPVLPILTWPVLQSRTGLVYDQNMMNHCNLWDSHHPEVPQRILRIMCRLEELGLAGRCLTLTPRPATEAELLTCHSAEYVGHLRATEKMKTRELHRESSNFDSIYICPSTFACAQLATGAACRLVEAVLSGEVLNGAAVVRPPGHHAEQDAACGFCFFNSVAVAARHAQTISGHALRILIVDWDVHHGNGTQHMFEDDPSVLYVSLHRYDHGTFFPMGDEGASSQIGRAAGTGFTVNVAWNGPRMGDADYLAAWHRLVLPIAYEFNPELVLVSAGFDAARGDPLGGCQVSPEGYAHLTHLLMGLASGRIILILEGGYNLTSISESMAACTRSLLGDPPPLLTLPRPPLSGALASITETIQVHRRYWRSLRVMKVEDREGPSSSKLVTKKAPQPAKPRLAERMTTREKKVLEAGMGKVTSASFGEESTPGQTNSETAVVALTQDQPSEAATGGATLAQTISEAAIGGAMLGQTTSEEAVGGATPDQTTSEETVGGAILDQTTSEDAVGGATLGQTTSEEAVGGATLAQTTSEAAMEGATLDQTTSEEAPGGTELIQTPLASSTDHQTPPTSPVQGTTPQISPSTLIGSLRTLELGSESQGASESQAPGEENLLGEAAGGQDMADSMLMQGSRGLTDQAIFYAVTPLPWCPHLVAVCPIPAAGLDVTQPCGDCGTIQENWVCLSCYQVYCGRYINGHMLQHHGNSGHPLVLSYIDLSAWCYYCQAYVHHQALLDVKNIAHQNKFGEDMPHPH
Protocol: as §1, §2, §3, §4

U87MG = conditions: human, 72 h
PANC1 = conditions: human, 72 h
A549 = conditions: human, 72 h
in vitro [1] = conditions: human
LNCap = conditions: human, 72 h
HepG2 = conditions: human, 72 h
in vitro [2] = conditions: monkey

Sequence of Human HDAC1 (Q13547 whole entry): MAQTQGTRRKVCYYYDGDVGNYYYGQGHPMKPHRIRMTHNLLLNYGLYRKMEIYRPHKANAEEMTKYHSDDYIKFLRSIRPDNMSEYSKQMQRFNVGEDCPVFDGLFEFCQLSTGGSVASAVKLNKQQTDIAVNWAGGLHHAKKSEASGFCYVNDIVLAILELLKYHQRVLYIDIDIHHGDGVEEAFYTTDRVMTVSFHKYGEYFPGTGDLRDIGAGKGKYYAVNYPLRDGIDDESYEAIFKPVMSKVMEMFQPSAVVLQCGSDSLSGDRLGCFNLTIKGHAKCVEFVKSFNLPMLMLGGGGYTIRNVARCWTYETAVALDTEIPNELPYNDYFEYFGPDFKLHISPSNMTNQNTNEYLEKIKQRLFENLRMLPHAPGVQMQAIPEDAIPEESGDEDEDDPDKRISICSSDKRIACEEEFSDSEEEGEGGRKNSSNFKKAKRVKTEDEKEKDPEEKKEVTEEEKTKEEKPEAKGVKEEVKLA

Row | IC50 (Human HDAC1) | IC50 (Human HDAC8) | IC50 (Human HDAC11) | IC50 (Human HDAC6) | IC50 (U87MG) | IC50 (PANC1) | IC50 (A549) | IC50 at 72 h (in vitro [1]) | IC50 (LNCap) | IC50 (HepG2) | IC50 at 72 h (in vitro [2]) | SMILES
1 | 9.41 µM | 0.095 µM | 15.4 µM | 0.008 µM | – | – | – | – | – | – | – | O=C(NO)c1ccc(Cn2c(=O)n(CCc3ccccc3)c(=O)c3ccc(F)cc32)cc1 [Compound 1, 4-((7-fluoro-2,4-dioxo-3-phenethyl-3,4-dihydroquinazolin-1(2H)-yl)methyl)-N-hydroxybenzamide]
2 | 12 µM | 0.731 µM | – | 0.051 µM | > 10 µM | > 10 µM | > 10 µM | > 200 µM | > 10 µM | > 10 µM | > 10 µM | COc1ccc2c(=O)n(CCc3ccccc3)c(=O)n(Cc3ccc(C(=O)NO)cc3)c2c1 [Compound 2, N-hydroxy-4-((7-methoxy-2,4-dioxo-3-phenethyl-3,4-dihydroquinazol-1(2H)-yl)methyl)benzamide]
3 | > 10 µM | 0.653 µM | > 10 µM | 4.3 µM | 3.75 ± 0.13 µM | 5.12 ± 0.32 µM | 4.03 ± 0.12 µM | 69.23 ± 0.27 µM | 3.4 ± 0.21 µM | 3.41 ± 0.34 µM | 78.42 ± 0.22 µM | O=C(NO)c1cccc(Cn2c(=O)n(CCc3ccccc3)c(=O)c3ccccc32)c1 [Compound 6, 3-((2,4-dioxo-3-phenethyl-3,4-dihydroquinazolin-1(2H)-yl)methyl)-N-hydroxybenzamide]
4 | > 10 µM | 0.235 µM | – | 4.45 µM | – | – | – | – | – | – | – | N#Cc1ccc2c(=O)n(CCc3ccccc3)c(=O)n(Cc3cccc(C(=O)NO)c3)c2c1 [Compound 7, 3-((7-cyano-2,4-dioxo-3-phenethyl-3,4-dihydroquinazolin-1(2H)-yl)methyl)-N-hydroxybenzamide]
5 | 2.72 µM | 0.523 µM | – | 0.004 µM | 7.63 ± 0.12 µM | 9.04 ± 0.21 µM | 8.15 ± 0.17 µM | 85.33 ± 0.34 µM | 4.72 ± 0.16 µM | 6.65 ± 0.22 µM | 93.24 ± 0.37 µM | Cn1c(=O)c2ccc(Cl)cc2n(Cc2ccc(C(=O)NO)cc2)c1=O [Compound 10, 4-((7-chloro-3-methyl-2,4-dioxo-3,4-dihydroquinazolin-1(2H)-yl)methyl)-N-hydroxybenzamide]
6 | 15.8 µM | 0.486 µM | 37.5 µM | 0.024 µM | 4.08 ± 0.11 µM | 6.13 ± 0.17 µM | 4.78 ± 0.11 µM | 89.18 ± 0.62 µM | 2.93 ± 0.62 µM | 4.39 ± 0.07 µM | 97.25 ± 0.31 µM | O=C(NO)c1ccc(Cn2c(=O)n(Cc3ccccc3)c(=O)c3ccccc32)cc1 [Compound 11, 4-((3-benzyl-2,4-dioxo-3,4-dihydroquinazolin-1(2H)-yl)methyl)-N-hydroxybenzamide]
7 | 11.2 µM | 1.07 µM | 25.1 µM | 0.028 µM | 9.12 ± 0.23 µM | > 10 µM | > 10 µM | 159.1 ± 0.44 µM | 7.53 ± 0.23 µM | > 10 µM | 166.4 ± 0.39 µM | O=C(NO)c1ccc(Cn2c(=O)n(CCc3ccccc3)c(=O)c3cccnc32)cc1 [Compound 12, 4-((2,4-dioxo-3-phenethyl-3,4-dihydropyrido[2,3-d]pyrimidin-1(2H)-yl)methyl)-N-hydroxybenzamide]
8 | – | – | – | – | 9.67 ± 0.66 µM | > 10 µM | > 10 µM | > 200 µM | 9.97 ± 0.08 µM | 7.43 ± 0.27 µM | > 200 µM | O=C(NO)C(F)(F)c1ccc(Cn2c(=O)n(CCc3ccccc3)c(=O)c3ccccc32)cc1 [Compound 20, 2-(4-((2,4-dioxo-3-phenethyl-3,4-dihydroquinazolin-1(2H)-yl)methyl)phenyl)-2,2-difluoro-N-hydroxyacetamide]
9 | 6.66 µM | 0.169 µM | 5.69 µM | 0.015 µM | 2.93 ± 0.13 µM | 4.72 ± 0.37 µM | 3.22 ± 0.31 µM | 63.11 ± 0.17 µM | 0.98 ± 0.06 µM | 3.55 ± 0.14 µM | 81.51 ± 0.18 µM | O=C(NO)c1ccc(Cn2c(=O)n(CCc3ccccc3)c(=O)c3ccsc32)cc1 [Compound 21, 4-((2,4-dioxo-3-phenethyl-3,4-dihydrothieno[2,3-d]pyrimidin-1(2H)-yl)methyl)-N-hydroxybenzamide]
10 | 10.7 µM | 0.287 µM | 10 µM | 0.011 µM | 4.18 ± 0.22 µM | > 10 µM | 4.69 ± 0.17 µM | 60.41 ± 0.22 µM | 3.83 ± 0.17 µM | 4.11 ± 0.27 µM | 76.31 ± 0.32 µM | O=C(NO)c1ccc(Cn2c(=O)n(CCc3cccs3)c(=O)c3ccccc32)cc1 [Compound 24, 4-((2,4-dioxo-3-(2-(thiophen-2-yl)ethyl)-3,4-dihydroquinazolin-1(2H)-yl)methyl)-N-hydroxybenzamide]
11 | > 30 µM | 1.19 µM | 129 µM | 1.19 µM | 5.23 ± 0.21 µM | 8.13 ± 0.28 µM | 6.25 ± 0.33 µM | 105.1 ± 0.25 µM | 5.77 ± 0.46 µM | 5.31 ± 0.37 µM | 106.3 ± 0.29 µM | O=C(NO)c1cc(Cn2c(=O)n(CCc3ccccc3)c(=O)c3ccccc32)cs1 [Compound 25, 4-((2,4-dioxo-3-phenethyl-3,4-dihydroquinazolin-1(2H)-yl)methyl)-N-hydroxythiophene-2-carboxamide]
12 | 14.5 µM | 3.06 µM | 10.5 µM | 0.168 µM | – | – | – | – | – | – | – | O=C(NO)c1ccc(Cn2c(=O)n(CCc3ccccc3)c(=O)c3ccc(C4CC4)cc32)cc1 [Compound 27, 4-((7-cyclopropyl-2,4-dioxo-3-phenethyl-3,4-dihydroquinazolin-1(2H)-yl)methyl)-N-hydroxybenzamide]
13 | 4.38 µM | 1.42 µM | 3.8 µM | 0.025 µM | – | – | – | – | – | – | – | CNc1ccc(CCn2c(=O)c3ccccc3n(Cc3ccc(C(=O)NO)cc3)c2=O)cc1 [Compound 29, N-hydroxy-4-((3-(4-(methylamino)phenethyl)-2,4-dioxo-3,4-dihydroquinazolin-1(2H)-yl)methyl)benzamide]
14 | 9.79 µM | 0.979 µM | 22.8 µM | 0.014 µM | – | – | – | – | – | – | – | O=C(NO)c1ccc(Cn2c(=O)n(CCc3ccc(N4CCOCC4)cc3)c(=O)c3ccccc32)cc1 [Compound 30, N-hydroxy-4-((3-(4-morpholinophenethyl)-2,4-dioxo-3,4-dihydroquinazolin-1(2H)-yl)methyl)benzamide]

Row | SMILES | IC50 (Human HDAC1) | IC50 (Human HDAC8) | IC50 (Human HDAC11) | IC50 (Human HDAC6) | IC50 (U87MG) | IC50 (PANC1) | IC50 (A549) | IC50 at 72 h (in vitro [1]) | IC50 (LNCap) | IC50 (HepG2) | IC50 at 72 h (in vitro [2])
15 | O=C(NO)c1ccc(Cn2c(=O)n(CCc3ccccc3O)c(=O)c3ccccc32)cc1 [Compound 18, N-hydroxy-4-((3-(2-hydroxyphenethyl)-2,4-dioxo-3,4-dihydroquinazolin-1(2H)-yl)methyl)benzamide] | 8.83 µM | 0.4 µM | 16.7 µM | 0.006 µM | – | – | – | – | – | – | –
